From ChEMBL document CHEMBL1140419, “Synthesis of doxorubicin-peptide conjugate with multidrug resistant tumor cell killing activity” (Bioorg Med Chem Lett, 2005) come the findings set out here.

In data set [1] the test system is NCI/ADR-RES. The data set can be described thus: Percentage intracellular concentration in MCF7/ADR drug-resistant cell line. The format is ADME, cell-based. The settings on record: human.
Data set [2] deals with NCI/ADR-RES. The data set can be described thus: Tumor killing activity in MCF7/ADR drug-resistant cell line by MTT assay. The settings on record: Homo sapiens. Type of data set: functional, cell-based.
For data set [3], the system named is AT3B-1. Description: Tumor killing activity in AT3B1 drug-resistant cell line by MTT assay. Type of data set: functional, cell-based. The settings on record: Rattus norvegicus. In general terms: Tetrazolium dyes change colour on reduction, which living cells bring about.
Data set [4] concerns NCI/ADR-RES. Description: Tumor killing activity in MCF7/ADR drug-resistant cell line with 10 uM verapamil (P-gp inhibitor). The settings on record: Homo sapiens. Type of data set: functional, cell-based.
In data set [5] the test system is AT3B-1. The data set can be described thus: Inhibition of tumor killing activity in AT3B1 drug-resistant cell line with 10 uM verapamil (P-gp inhibitor). The settings on record: Rattus norvegicus. The format is functional, cell-based.
The subject of data set [6] is MCF7. The data set can be described thus: Cytotoxicity on drug-sensitive MCF7 cells. Type of data set: functional, cell-based. The settings on record: Homo sapiens.
For data set [7], the system named is AT3B-1. Description: Percentage intracellular concentration in AT3B1 drug-resistant cell line. The format is ADME, cell-based, Homo sapiens.
Data set [8] has as its system MCF7. The data set can be described thus: Percentage intracellular concentration in MCF7 breast cancer cells. Type of data set: ADME, cell-based. The settings on record: human.
Data set [9] concerns MCF7. Description: Tumor killing activity in MCF7 breast cancer cells by MTT assay. Type of data set: functional, cell-based. The settings on record: Homo sapiens.

Consider `COc1cccc2c1C(=O)c1c(O)c3c(c(O)c1C2=O)C[C@@](O)(C(=O)CO)C[C@@H]3O[C@H]1C[C@H](N)[C@H](O)[C@H](C)O1` [DOXORUBICIN], for which the permeability in the data set with NCI/ADR-RES [1] was found to be 4.5%; with AT3B-1 [7] it was 7.9%; with MCF7 [8] it was 92.3%. In addition, the IC50 in the data set on NCI/ADR-RES [2] is 45.2 µM; in the data set on AT3B-1 [3], 168 µM; in the data set on NCI/ADR-RES [4] it was 6.7 µM; in the data set with AT3B-1 [5], 42.4 µM. Further, in the data set with MCF7 [6], the Activity result was “Dose-dependent effect”.
`COc1cccc2c1C(=O)c1c(O)c3c(c(O)c1C2=O)C[C@@](O)(C(=O)CO)C[C@@H]3O[C@H]1C[C@H](NC(=O)C2CCC(CN3C(=O)CC(SC[C@H](N)C(=O)NCC(=O)NCC(=O)NCC(=O)N[C@@H](Cc4ccc(O)cc4)C(=O)NCC(=O)N[C@@H](CCCN=C(N)N)C(=O)N[C@@H](CCCCN)C(=O)N[C@@H](CCCCN)C(=O)N[C@@H](CCCN=C(N)N)C(=O)N[C@@H](CCCN=C(N)N)C(=O)N[C@@H](CCC(N)=O)C(=O)N[C@@H](CCCN=C(N)N)C(=O)N[C@@H](CCCN=C(N)N)C(=O)N[C@@H](CCCN=C(N)N)C(=O)O)C3=O)CC2)[C@H](O)[C@H](C)O1` (some centres not stated): the permeability with NCI/ADR-RES [1] amounted to 58.4%; with AT3B-1 [7], 49.3%; in the data set on MCF7 [8] it was 84.6%. Moreover, the IC50 with MCF7 [9] is 0.28 µM; with NCI/ADR-RES [2], 5.8 µM; in the data set on AT3B-1 [3], 23.4 µM; in the data set with NCI/ADR-RES [4], 5.2 µM; with AT3B-1 [5], 23.8 µM. Further, in the data set on MCF7 [6], the Activity result was “Dose-dependent effect”.

The term IC50 denotes the concentration needed to halve the response being measured.
